From patent US10294230B2, “3,3-difluoropiperidine carbamate heterocyclic compounds as NR2B NMDA receptor antagonists” (Rugen Holdings (Cayman) Limited, priority 2015, dated 2019)

Tests used:
NR2B receptor = NR2B receptor (Rattus norvegicus (Rat), UniProt P35439+Q00960); assay: [3H] (E)-N1-(2-methoxybenzyl)-cinnamidine radioligand binding, rat brain membranes; conditions: for displacement of [3H] (E)-N1-(2-methoxybenzyl)-cinnamidine at the NR2B receptor high affinity site: rat brain membranes; for Ki: read-out: Ki at the NR2B receptor high affinity site
Method: (§1) This example describes NMDA receptor binding assays using two different radioligands, [^3H] […] An established binding assay using the non-selective NMDA receptor ligand [^3H] […] The binding assay method using the NR2B selective receptor ligand [^3H] […] This assay serves as a selective measure of NR2B receptor binding activity in native rat brain receptors. Briefly, the brains of Male Wistar rats were homogenized (Polytron) before centrifugation at 40,000×g for 15 minutes at 4° C. After 2 washes, the final pellet was homogenized and stored at −80° C. The protein concentration was determined by Bradford assay.
[^3H] […] Thus, using [^3H]
(§2) Test compounds were solubilized at 10 mM in DMSO. Then the dilutions were performed with a constant solvent concentration (1% DMSO) in the assay.
(§3) After incubation for 4.5 h at room temperature, the assays were filtered on GF/B filters pretreated with 0.3% (v/v) PEI with a Brandel system for [^3H] […] The experiment was performed in duplicate (n=2).

hERG channel = hERG channel (Homo sapiens (Human), UniProt Q12809); assay: hERG channel inhibition, whole cell patch clamp in HEK293 cells; assay type: cell-based; conditions: 10 μM
Method: The assay was performed on hERG channel stably expressed in HEK293 cells. The cells were cultured at 37° C. in a humidified CO2 incubator in the growth medium consisting of DMEM, 10% fetal bovine serum and antibiotics. Prior to the assay, the cells were seeded onto a 12 mm PDL-coated glass coverslip and cultured in a 35 mm Petri dish. After 16 to 40 hr culture, the cover slip was transferred into the chamber of OctaFlow perfusion system (ALA Instrument) and under a constant flow of extracellular solution (140 mM NaCl, 4 mM KCl, 1 mM MgCl2, 2 mM CaCl2, 10 mM HEPES, 10 mM D-glucose, pH 7.35, osmolarity 290). Whole cell patch clamping was performed with a glass micropipette filled with intracellular solution (120 mM KCl, 1.75 mM MgCl2, 5.4 mM CaCl2, 10 mM HEPES, 10 mM EGTA, and 4 mM ATP-K2, PH 7.2, osmolarity 310). Giga-seal was maintained during the test. The voltage control and current measurement were carried out using Axon amplifier 700B, Digidata 1440A and CLAMPEX10 software (Molecular Devices). Whole-cell hERG currents were recorded following the Petroski protocol: the cell was held at −80 mV, and the voltage step jumped from −80 to 30 mV and stay for 2 sec with a 20 ms prepulse at −40 mV. After depolarization, the voltage was decreased to −40 mV and stay for 2 sec, and returned back to −80 mV. Test compound was applied by quartz capillary tubes tip (200 μm inner diameter), and the flow rate was controlled at 2-3 ml/min with OctaFlow perfusion system. Different concentrations of the compound were applied to the cells for 5 min and the hERG current was measured three times before, during and after compound treatment. The data were analyzed using Clampfit 10 software (Molecular Devices) to generate IC50 values.

CYP2D6 = CYP2D6 (Homo sapiens (Human), UniProt P10635); assay: CYP P450 enzyme inhibition, pooled human liver microsome; assay type: in vitro ADME; conditions: 10 μM, pooled HLM, dextromethorphan 5 μM
Method: Those CYP isoforms and their corresponding probe substrates are as follows: CYP1A2 (phenacetin, 30 μM), CYP2C9 (tolutamide, 100 μM), CYP2C19 (S-mephenytoin, 40 μM), CYP2D6 (dextromethorphan, 5 μM) and CYP3A4 (midazolam, 1 μM). All probe substrates were used at concentrations near or below their Kms. For experiment, a reaction mixture of test compound at 10 μM or in serial dilution, CYP probe substrate described above and 0.2 mg/mL pooled HLM in phosphate buffer, pH 7.4 in a final volume of 200 μL was pre-incubated at 37° C. for 10 minutes in triplicate. The reaction was initiated by addition of NADPH at final concentration of 1 mM. The reaction was terminated after 10 minutes (CYP1A2, CYP2D6 and CYP3A4) or 30 minutes (CYP2C9 and CYP2C19) by addition of 100 μL ice-cold acetonitrile with internal standard (IS). The samples were then centrifuged at 13,000 rpm and the supernatants were injected to LC-MS/MS (Agilent Technologies) to quantify the concentration of the specific metabolites of the probe substrates formed by individual CYP450 isoforms. The inhibition ratio is calculated as: (Mt−M0)/Mwater×100% in which Mt and M0 represent the concentrations of the specific probe substrate metabolite, which was formed by individual CYP450 isoform, at the beginning and end of the reaction in the presence of test compound; while Mwater represents the concentration of the specific metabolite at the end of the reaction in the absence of test compound. Test compound concentration-dependent response data experiments performed in triplicate.

human NR1/NR2A = human NR1/NR2A (Homo sapiens (Human), UniProt Q05586+Q12879); assay: NR2A antagonist activity, Fluo-4 calcium influx in HEK293 cells; assay type: cell-based; conditions: Table 2.1, glutamate 100 μM, glycine 50 μM
Method: (§4) HEK293 cell lines stably expressing cloned human NR1/NR2B and NR1/NR2A, respectively, were established according to standard previously described methods (Hansen et al., Comb. Chem High Throughput Screen. 11:304, 2008). Activation of the NR2A or NR2B subtype of NMDA receptor with glutamate as an agonist and glycine co-agonist on these cells results in calcium influx, which can be monitored with fluorescent indicator Fluo-4.
(§5) For experiments, the cells were seeded onto poly-D-lysine-coated 96-well black plates with clear bottom (Corning) at a density of ˜50,000 cells/well. After overnight culture, the growth medium was removed from the wells and the cells were incubated at 37° C. for 60 min in Hanks buffer containing 4 μM fluo-4-AM (Invitrogen) and 0.1% bovine serum albumin (BSA). After dye-loading, the cells were washed three times with Hanks buffer and incubated for 10 min at room temperature with various concentrations of test compounds prepared in Hanks buffer with 0.1% BSA. The cell plates were placed onto FDSS pCell fluorescence reader (Hamamatsu). After 20 sec reading of background fluorescence, agonist glutamate at final 100 μM and co-agonist glycine at final 50 μM were added to the cells to activate the receptor, and the resulting fluorescence changes were recorded and quantified. Based on the changes in fluorescence intensity, the pharmacological effect of test compounds were analyzed and the IC50 values derived from a non-linear least squares fitting of the concentration-dependent response to a standard logistic equation using Prism (Graphpad, Inc): Amplitude=Max Amplitude/(1+(IC50/[antagonist])^n).

human NR1/NR2B = human NR1/NR2B (Homo sapiens (Human), UniProt Q05586+Q13224); assay: NR2B antagonist activity, Fluo-4 calcium influx in HEK293 cells; assay type: cell-based
Method: as §4, §5

NMDA receptor = assay: [3H] MK-801 radioligand binding, rat brain membranes; conditions: 2 nM [3H] MK-801
Method: as §1, §2, §3

[1] = test system: electroconvulsive threshold (tonic convulsions); assay: Electroconvulsive Threshold Test (ECT); assay type: in vivo, rats; conditions: rats, 3 and 10 mpk p.o., mesylate salt
Method: Test compound E1-8.2 was administered as the free base.
Rats were administered ECS (rectangular current: 0.6 ms pulse width, 1.5 s duration, 200 Hz) via earclip electrodes connected to a constant current shock generator (Ugo Basile: type 7801). Test compounds were administered by oral gavage (p.o.) 1 hour before the test at a dose volume of 5 mL/kg.
Treatment groups of 20 rats were exposed to ECS as follows: The first animal was exposed to 30 mA of ECS. […] (increases of 5 mA) until the first tonic convulsion was observed. Once the first tonic convulsion was observed, the intensity of ECS was decreased by 2 mA for the next animal and then decreased or increased by 2 mA from animal to animal depending on whether the previous animal convulsed or not. If the first animal did convulse (tonic convulsions) within 5 seconds, animal no2 is exposed to 25 mA, etc. . . . (decreases of 5 mA) until the absence of tonic convulsions was observed. At this point, the intensity of ECS was increased by 2 mA for the next animal and then decreased or increased by 2 mA from animal to animal depending on whether the previous animal convulsed or not. The minimum current intensity applied is 5 mA and the maximum 95 mA. The first 5 animals serve to approach threshold current and were not included in the analysis. The results are presented as the mean current intensity administered to the final 15 animals of a group. The test was performed blind. A positive percent change indicates an anticonvulsant effect. A negative percent change indicates a proconvulsant effect. The test substance was evaluated at 4 doses, typically using 0.5% dimethylsulfoxide, 4% hydroxypropyl-b-cyclodextrin water as a vehicle, and administered p.o. 60 minutes before ECS, and compared with a vehicle control group. Diazepam (16 mg/kg p.o.), administered under the same experimental conditions, was used as reference substance. The experiment included 6 groups. Data with the test substance was analyzed by comparing treated groups with vehicle control using one-way ANOVA followed by Dunnett's t tests.

[2] = test system: pentylenetetrazole (PTZ) induced convulsions; assay: Pentylenetetrazole (PTZ) Seizure Test; assay type: in vivo; conditions: 10 mg/kg p.o., mesylate salt
Method: Rats, placed in individual macrolon cages (25×19×13 cm), were injected with pentylenetetrazole (PTZ) (100 mg/kg s.c.). The occurrence and latency of clonic and tonic convulsions and death were noted over a 30 minute period. 15 rats were studied per group. The test was performed blind. […]
Compounds were evaluated typically using 0.5% dimethylsulfoxide, 4% hydroxypropyl-b-cyclodextrin water as a vehicle at 1 or more doses (e.g., 1, 3 and 10 mg/kg), administered p.o. 30 minutes before PTZ, and compared with a vehicle control group. Diazepam (16 mg/kg p.o.), administered 60 minutes before PTZ, was used as reference substance. The experiment was performed over 2 separate sub-experiments with N=7 to 8 animals per group and per sub-experiment. Quantitative data (latencies) with the test substance was analyzed by comparing treated groups with vehicle control using Kruskal-Wallis test followed by Mann-Whitney U test. Quantitative data with the reference substance was analyzed using Mann-Whitney U test. Quantal data (frequencies) was analyzed by comparing treated groups with vehicle control using Fisher's Exact Probability tests (*=p<0.05; **=p<0.01; ***=p<0.001).

[3] = test system: haloperidol-induced catalepsy; assay: Haloperidol-Induced Catalepsy (HIC) Model; assay type: in vivo; conditions: rats
Excerpt: The Haloperidol-induced Catalepsy (HIC) model detects antipsychotic activity and the action of NR2B selective antagonists (Steece-Collier et al. Exp. Neurol. 163: 239, 2000) and was based on methods described by Chermat and Simon (J. Pharmacol., 6, 493-496, 1975). The capacity to induce catalepsy serves as an index of the liability of a test substance to induce extrapyramidal side-effects, in particular Parkinsonism. Antagonism of antipsychotic-induced catalepsy can thus serve to detect anti-Parkinson potential.
Rats were injected with haloperidol (1 mg/kg i.p.) and were examined for catalepsy at 30 minute intervals up to 360 minutes. Presence (+) or absence (−) of catalepsy was assessed by three procedures: 1) imposed crossing of the ipsilateral fore- and hind-limbs; 2) placing the animal in the Buddha position; 3) the tilting board, an automatic device that, 5 seconds after positioning the rat, displaces the rat from a horizontal to vertical position and back while it clings to a wire grid with its front paws. Akinesia and catalepsy were assessed depending on whether or not the animal moves before (akinesia) or during operation of the board (catalepsy).
The 4 scores were cumulated over time to give a global catalepsy score per animal. Six rats were studied per group. The test was performed blind (test substances versus vehicle). Test substances were evaluated at 1 or more doses, administered typically using 0.5% dimethylsulfoxide, 4% hydroxypropyl-b-cyclodextrin water as a vehicle p.o. 15 minutes before haloperidol (i.e. 45 minutes before the first measurement), and compared with a vehicle control group.
Amphetamine (8 mg/kg p.o.), administered 60 minutes before the test (i.e. 90 minutes before the first measurement), was used as reference substance. Data with the test substances were analyzed by comparing treated groups with vehicle control using Kruskal-Wallis Test followed by Mann-Whitney U tests at each time and for cumulated score. Data with the reference substance were analyzed using Mann-Whitney U tests.

[4] = Table 2.1, HEK293 human NR1/NR2B, glutamate 100 μM, glycine 50 μM

CYP2D6, sequence (P10635 whole entry): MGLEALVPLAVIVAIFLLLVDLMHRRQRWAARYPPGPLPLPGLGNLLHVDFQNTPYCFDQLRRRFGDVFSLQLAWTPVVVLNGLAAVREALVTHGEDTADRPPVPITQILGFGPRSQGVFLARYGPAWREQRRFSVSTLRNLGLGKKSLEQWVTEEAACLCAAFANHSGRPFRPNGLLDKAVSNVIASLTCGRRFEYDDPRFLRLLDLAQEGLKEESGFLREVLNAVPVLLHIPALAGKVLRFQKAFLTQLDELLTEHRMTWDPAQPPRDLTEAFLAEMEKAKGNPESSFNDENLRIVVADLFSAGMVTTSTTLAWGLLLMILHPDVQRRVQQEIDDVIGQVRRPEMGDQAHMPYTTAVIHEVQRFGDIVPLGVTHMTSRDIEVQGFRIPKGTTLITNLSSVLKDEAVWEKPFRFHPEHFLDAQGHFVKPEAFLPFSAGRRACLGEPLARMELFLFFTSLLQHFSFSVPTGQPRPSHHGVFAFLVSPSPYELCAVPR
hERG channel, sequence (Q12809 whole entry): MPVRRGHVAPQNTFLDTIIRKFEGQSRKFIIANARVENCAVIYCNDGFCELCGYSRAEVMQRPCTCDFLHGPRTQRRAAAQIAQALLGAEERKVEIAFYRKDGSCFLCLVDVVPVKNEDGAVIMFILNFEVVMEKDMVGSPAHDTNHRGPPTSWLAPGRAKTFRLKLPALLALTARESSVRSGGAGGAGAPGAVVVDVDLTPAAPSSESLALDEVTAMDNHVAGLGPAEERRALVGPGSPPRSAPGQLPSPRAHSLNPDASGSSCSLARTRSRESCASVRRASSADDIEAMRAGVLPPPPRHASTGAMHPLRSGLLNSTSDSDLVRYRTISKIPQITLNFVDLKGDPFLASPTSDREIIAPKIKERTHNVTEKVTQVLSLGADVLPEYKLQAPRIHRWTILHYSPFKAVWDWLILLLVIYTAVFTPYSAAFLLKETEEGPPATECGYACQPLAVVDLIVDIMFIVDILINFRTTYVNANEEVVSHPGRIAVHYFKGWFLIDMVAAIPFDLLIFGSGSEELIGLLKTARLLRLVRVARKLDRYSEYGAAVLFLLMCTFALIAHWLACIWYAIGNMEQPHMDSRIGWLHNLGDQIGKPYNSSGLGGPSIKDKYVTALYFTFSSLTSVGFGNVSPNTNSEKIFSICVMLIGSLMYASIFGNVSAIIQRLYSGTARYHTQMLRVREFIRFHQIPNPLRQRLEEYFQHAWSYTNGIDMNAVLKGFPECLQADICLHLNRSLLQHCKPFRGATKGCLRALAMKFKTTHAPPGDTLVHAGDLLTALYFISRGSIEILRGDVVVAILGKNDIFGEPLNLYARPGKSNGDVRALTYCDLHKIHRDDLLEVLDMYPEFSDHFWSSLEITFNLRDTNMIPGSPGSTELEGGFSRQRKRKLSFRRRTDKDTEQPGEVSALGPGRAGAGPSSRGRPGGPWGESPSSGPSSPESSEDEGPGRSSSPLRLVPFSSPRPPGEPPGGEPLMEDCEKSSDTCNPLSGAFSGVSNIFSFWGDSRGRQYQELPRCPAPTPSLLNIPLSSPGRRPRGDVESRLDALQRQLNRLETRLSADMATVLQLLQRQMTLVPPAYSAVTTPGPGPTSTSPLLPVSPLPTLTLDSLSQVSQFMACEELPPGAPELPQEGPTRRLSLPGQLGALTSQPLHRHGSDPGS
NR2B receptor, sequence (Q00960 27-1482, other chains not shown): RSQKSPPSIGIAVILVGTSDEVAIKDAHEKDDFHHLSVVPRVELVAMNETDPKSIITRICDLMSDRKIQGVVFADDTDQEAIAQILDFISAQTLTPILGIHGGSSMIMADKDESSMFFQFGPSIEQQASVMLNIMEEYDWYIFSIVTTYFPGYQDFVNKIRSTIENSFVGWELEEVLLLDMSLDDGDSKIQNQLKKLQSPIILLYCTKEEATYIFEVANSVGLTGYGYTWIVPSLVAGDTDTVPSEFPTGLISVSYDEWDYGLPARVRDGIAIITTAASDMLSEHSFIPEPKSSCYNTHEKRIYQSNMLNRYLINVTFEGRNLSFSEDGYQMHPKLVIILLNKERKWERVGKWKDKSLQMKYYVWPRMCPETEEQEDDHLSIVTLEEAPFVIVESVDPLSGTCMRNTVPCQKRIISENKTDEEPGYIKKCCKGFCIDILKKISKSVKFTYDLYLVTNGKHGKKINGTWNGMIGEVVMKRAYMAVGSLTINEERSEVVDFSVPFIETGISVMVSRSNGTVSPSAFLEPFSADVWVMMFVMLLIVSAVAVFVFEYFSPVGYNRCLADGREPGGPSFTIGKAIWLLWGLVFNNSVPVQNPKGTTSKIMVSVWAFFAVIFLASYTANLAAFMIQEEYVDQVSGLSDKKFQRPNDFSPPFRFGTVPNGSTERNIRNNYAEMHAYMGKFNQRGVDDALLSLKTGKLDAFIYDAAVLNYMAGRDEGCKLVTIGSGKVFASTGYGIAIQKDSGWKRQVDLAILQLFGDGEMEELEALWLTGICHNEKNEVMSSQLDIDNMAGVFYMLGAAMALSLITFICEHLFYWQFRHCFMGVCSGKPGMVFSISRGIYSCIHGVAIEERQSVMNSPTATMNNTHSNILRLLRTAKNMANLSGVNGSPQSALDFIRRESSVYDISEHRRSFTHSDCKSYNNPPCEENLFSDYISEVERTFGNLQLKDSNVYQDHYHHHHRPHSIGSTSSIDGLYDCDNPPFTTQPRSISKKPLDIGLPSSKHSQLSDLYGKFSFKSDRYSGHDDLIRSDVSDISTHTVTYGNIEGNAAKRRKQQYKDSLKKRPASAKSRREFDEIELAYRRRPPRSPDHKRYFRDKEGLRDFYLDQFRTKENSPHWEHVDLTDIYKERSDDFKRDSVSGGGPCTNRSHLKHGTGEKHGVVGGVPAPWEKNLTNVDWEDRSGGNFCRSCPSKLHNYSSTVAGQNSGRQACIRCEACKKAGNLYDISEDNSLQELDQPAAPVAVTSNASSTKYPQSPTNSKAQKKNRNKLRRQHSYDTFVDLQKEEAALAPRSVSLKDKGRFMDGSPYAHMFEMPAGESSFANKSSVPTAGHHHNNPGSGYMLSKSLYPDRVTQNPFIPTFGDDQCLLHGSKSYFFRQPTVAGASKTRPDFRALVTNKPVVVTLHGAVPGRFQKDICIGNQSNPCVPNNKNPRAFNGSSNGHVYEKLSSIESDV
human NR1/NR2A, sequence (Q12879 23-1464, other chains not shown): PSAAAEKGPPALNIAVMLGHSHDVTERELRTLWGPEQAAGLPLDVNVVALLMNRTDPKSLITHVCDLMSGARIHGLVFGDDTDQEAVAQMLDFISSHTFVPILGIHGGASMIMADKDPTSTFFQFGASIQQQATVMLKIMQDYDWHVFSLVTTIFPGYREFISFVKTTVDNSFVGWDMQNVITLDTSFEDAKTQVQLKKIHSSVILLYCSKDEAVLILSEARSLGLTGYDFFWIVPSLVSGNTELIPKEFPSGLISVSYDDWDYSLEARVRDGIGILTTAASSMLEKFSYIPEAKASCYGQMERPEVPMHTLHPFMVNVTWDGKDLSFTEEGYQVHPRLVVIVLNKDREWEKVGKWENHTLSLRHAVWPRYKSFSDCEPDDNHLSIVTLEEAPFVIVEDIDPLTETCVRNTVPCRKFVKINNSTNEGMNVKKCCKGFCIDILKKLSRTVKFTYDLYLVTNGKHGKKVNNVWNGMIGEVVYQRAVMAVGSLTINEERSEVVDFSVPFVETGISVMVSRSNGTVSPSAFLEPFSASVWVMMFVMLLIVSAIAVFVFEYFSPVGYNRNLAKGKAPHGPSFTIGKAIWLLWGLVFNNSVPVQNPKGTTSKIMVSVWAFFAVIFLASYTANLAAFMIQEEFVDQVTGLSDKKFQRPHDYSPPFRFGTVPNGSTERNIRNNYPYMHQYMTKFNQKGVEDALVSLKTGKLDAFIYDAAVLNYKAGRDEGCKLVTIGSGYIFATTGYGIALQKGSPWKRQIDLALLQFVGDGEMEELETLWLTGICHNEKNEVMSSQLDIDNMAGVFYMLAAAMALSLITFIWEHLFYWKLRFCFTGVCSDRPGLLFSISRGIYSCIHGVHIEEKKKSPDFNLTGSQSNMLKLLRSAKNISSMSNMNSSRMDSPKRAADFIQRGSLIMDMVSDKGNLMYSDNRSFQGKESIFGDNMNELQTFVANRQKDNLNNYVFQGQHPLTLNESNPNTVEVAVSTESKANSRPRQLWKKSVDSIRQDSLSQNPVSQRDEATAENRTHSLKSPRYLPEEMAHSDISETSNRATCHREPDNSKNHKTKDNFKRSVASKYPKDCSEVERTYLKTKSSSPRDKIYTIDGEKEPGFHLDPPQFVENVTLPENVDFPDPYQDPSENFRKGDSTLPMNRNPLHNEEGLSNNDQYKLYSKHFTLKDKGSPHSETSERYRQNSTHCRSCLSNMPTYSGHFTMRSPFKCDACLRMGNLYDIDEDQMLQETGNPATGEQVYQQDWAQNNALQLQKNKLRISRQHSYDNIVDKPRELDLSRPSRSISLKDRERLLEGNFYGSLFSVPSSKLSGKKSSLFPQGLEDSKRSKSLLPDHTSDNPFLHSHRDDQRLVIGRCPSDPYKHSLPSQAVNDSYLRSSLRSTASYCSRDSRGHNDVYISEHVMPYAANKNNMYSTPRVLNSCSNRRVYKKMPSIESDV

| Structure (SMILES) | displacement of [3H] (E)-N1-(2-methoxybenzyl)-cinnamidine at the NR2B receptor high affinity site (NR2B receptor) | Ki (NR2B receptor) | hERG @ 10 μM (%) (hERG channel) | CYP2D6 @ 10 μM (%) (CYP2D6) | IC50 (human NR1/NR2A) | IC50 (human NR1/NR2B; [4]) | IC50 (human NR1/NR2B; Table 2.2) | IC50 (human NR1/NR2B; Table 2.3) | partial effect on [3H] MK-801 binding (NMDA receptor) | electroconvulsive threshold, pro-/anticonvulsant activity [1] | number of rats showing tonic convulsions, change vs vehicle controls [2] | latency to clonic convulsions, change vs vehicle controls ([2]; rats) | latency to death, change vs vehicle controls ([2]; rats) | latency to tonic convulsions, change vs vehicle controls ([2]; rats) | number of deaths, change vs vehicle controls ([2]; rats) | cumulated score of catalepsy over 360 mins ([3]; 3 mg/kg p.o.) | cumulated score of catalepsy over 360 mins ([3]; 10 mg/kg p.o.) |
| --- | --- | --- | --- | --- | --- | --- | --- | --- | --- | --- | --- | --- | --- | --- | --- | --- | --- |
| O=C(OCc1ccc(Cl)cc1)N1CC[C@H](CNc2nccn3cnnc23)C(F)(F)C1 [Compound E1-1.3, R-4-chlorobenzyl 4-(([1,2,4]triazolo[4,3-a]pyrazin-8-ylamino)methyl)-3,3-difluoropiperidine-1-carboxylate] | 97% | 2.34 nM | 19% | 37% | > 10000 nM | 14.8 nM | 14.8 nM | 14.8 nM | 41% |  |  |  |  |  |  |  |  |
| O=C(OCc1ccc(F)cc1)N1CC[C@H](CNc2nccn3cnnc23)C(F)(F)C1 [Compound E1-1.4, R-4-fluorobenzyl 4-(([1,2,4]triazolo[4,3-a]pyrazin-8-ylamino)methyl)-3,3-difluoropiperidine-1-carboxylate] | 98% | 18.2 nM | 11% | 19% | > 10000 nM | 20.5 nM | 20.5 nM | 20.5 nM | 32% |  |  |  |  |  |  |  |  |
| Cc1ccc(COC(=O)N2CC[C@H](CNc3cnccn3)C(F)(F)C2)cc1 [Compound E1-21.2, R-4-methylbenzyl 3,3-difluoro-4-((pyrazin-2-ylamino)methyl)piperidine-1-carboxylate] | 98% |  | 27% | 97% | > 10000 nM | 14.4 nM | 14.4 nM | 14.4 nM | 49% |  |  |  |  |  |  |  |  |
| Cc1ccc(COC(=O)N2CC[C@H](CNc3cnc(C)cn3)C(F)(F)C2)cc1 [Compound E1-21.26, R-4-methylbenzyl 3,3-difluoro-4-((5-methylpyrazin-2-ylamino)-methyl)piperidine-1-carboxylate] | 99% |  | 39% | 32% | > 10000 nM | 38.7 nM | 38.7 nM | 38.7 nM | 41% | anticonvulsant activity | −82% | +45% | +31% | +40% | −82% | 11.7 | 1.0 |
